In this assay the target is T1, MOR23 (Mus musculus, UniProt Q62007).
T1 construct: gene Or10j5; native full-length receptor in GFP-labelled olfactory sensory neurons of gene-targeted MOR23-IRES-tauEGFP mice, intact epithelium; untagged (IRES reporter)
T1 sequence (Q62007 1-309): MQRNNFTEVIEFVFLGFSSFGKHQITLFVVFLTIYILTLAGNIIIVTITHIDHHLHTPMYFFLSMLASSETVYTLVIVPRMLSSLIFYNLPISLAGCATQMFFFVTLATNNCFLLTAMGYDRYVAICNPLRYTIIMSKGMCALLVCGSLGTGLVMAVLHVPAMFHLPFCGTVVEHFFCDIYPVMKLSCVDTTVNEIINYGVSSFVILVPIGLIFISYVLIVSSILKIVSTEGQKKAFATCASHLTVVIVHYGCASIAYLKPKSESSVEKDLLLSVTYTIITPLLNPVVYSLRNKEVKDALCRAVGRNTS
In words: perforated patch-clamp of dendritic knob, peak transduction current, Hill fit. Type of assay: cell-based. The following applies: neurons of control-diet mice; holding -67 mV; Ringer pH 7.6; pressure-delivered odorant; whole-neuron transduction read-out; read-out: K1/2. Background: Patch clamp records ionic current or voltage across a cell membrane.

Structures are written as SMILES.

As to `CC(C)(O)CCCC1=CCC(C=O)CC1` (stereo not shown) [Lyral], the EC50 came out at 3 ± 1 µM.

The record behind these values is article PMC5034277, “High Fructose Diet inducing diabetes rapidly impacts olfactory epithelium and behavior in mice” (Scientific Reports, 2016).
